Patent publication US7935687B2, “Methods for treating spinal muscular atrophy using tetracycline compounds” (Paratek Pharmaceuticals, Inc., priority 2007, dated 2011)

Tests used:
[1] = system: SMN2 mRNA; test: In vitro cell-free splicing assay for inclusion of exon 7; type: biochemical; conditions: HeLa cell nuclear extract, 30° C., 3 hours
Protocol: The following example illustrates how tetracycline compound of the invention are active in an in vitro cell-free assay for the inclusion of exon 7 in […] mRNA. SMN1 and SMN2 pre-mRNA were prepared by in vitro transcription using T7 RNA polymerase of minigene templates that include exon 6, a truncated portion of intron 6, exon 7, intron 7 and a portion of exon 8 in the presence of ^32P-UTP. Labeled RNA was purified on a denaturing polyacrylamide gel followed by phenol extraction and ethanol precipitation of the RNA.
In vitro cell-free splicing of SMN1 and SMN2 transcripts was carried out in a 10 μl reaction volume at 30° C. for 3 hours. The reactions contained 10 fmol of labeled pre-mRNA, 30% (3 VI) HeLa cell nuclear extract (in 20 mM HEPES, pH 7.4, 20% (v/v) glycerol, 0.1M KC1, 0.2 mM EDTA), 1.3% (w/v) polyvinyl alcohol, 1.56 mM MgCl2, 32 mM HEPES, pH 7.4, 0.5 mM ATP, 20 mM creatine phosphate and either 2 μl of test compound (in 20 mM HEPES, pH 7.4, 0.1M KC1, 0.2 mM EDTA) or buffer alone. Following incubation, 200 μl of a solution containing 0.3M NaAc and 0.2% SDS was added to the reaction. Proteins were removed by extraction with an equal volume of phenol and RNA was precipitated with 2.5 volumes of ethanol. RNA was resuspended in formamide sample buffer and separated on a 9% urea-denaturing polyacrylamide gel. Quantitation of splicing was based on phosphorimage analysis (Fujix BAS2000 or Fujifilm FLA-5100). In this assay, percentage exon 7 inclusion averages 12% for the unmutated SMN1 mRNA and 4% for the SMN2 mRNA.
The in vitro activities for exon 7 splicing are expressed as the Emax (the maximum percentage exon 7 inclusion observed) and Cmax (the lowest compound concentration at which the maximum inclusion occurs in μM). For Emax, percentage inclusion values of less than 10% are indicated by “*”, values of 10-20% are indicated by “**”, and values greater than 20% are indicated by “***”. For Cmax data, concentrations of greater than 40 μM are indicated by “*”, concentrations between 40 and 10 μM are represented by “**” and concentrations of less than 10 μM are represented by “***”.

[2] = system: S. aureus (SA RN450); test: Antibacterial MIC, gram positive; type: cell-based; conditions: CLSI methodology, 35° C., 18-24 hours
[3] = system: E. coli (EC D1-209); test: Antibacterial MIC, gram negative; type: cell-based; conditions: CLSI methodology, 35° C., 18-24 hours

MIC ([2]; Staphylococcus aureus) [µg/mL] | MIC ([3]; Escherichia coli) [µg/mL] | SMILES | Cmax (lowest compound concentration at which the maximum exon 7 inclusion occurs) [1] | Emax (maximum percentage exon 7 inclusion observed) [1] | MIC Gram Positive (SA RN450) [2] | MIC Gram Negative (EC D1-209) [3]
 |  | CN(C)C1C(O)=C(C(N)=O)C(=O)C2(O)C(O)=C3C(=O)c4c(O)ccc(-c5ccc(NC(=O)CNC(C)(C)C)cc5)c4CC3CC12 (centres unmarked) [AF] | *** (concentrations of less than 10 μM) | * (percentage inclusion values of less than 10%) | *** (Good antibacterial activity (e.g., less than about 4 μg/mL)) | *** (Good antibacterial activity (e.g., less than about 4 μg/mL))
 |  | COCCNCC(=O)c1ccc(O)c2c1CC1CC3C(N(C)C)C(O)=C(C(N)=O)C(=O)C3(O)C(O)=C1C2=O (centres unmarked) [AG] | ** (concentrations between 40 and 10 μM) | * (percentage inclusion values of less than 10%) | ** (modest antibacterial activity (between about 4 and 8 μg/mL)) | * (weak antibacterial activity (greater than about 8 μg/mL))
 |  | CN(C)CCNC(=O)c1ccc(O)c2c1CC1CC3C(N(C)C)C(O)=C(C(N)=O)C(=O)C3(O)C(O)=C1C2=O (centres unmarked) [AH] | ** (concentrations between 40 and 10 μM) | * (percentage inclusion values of less than 10%) | * (weak antibacterial activity (greater than about 8 μg/mL)) | * (weak antibacterial activity (greater than about 8 μg/mL))
 |  | COc1ccc(CNCc2ccc(-c3ccc(O)c4c3CC3CC5C(N(C)C)C(O)=C(C(N)=O)C(=O)C5(O)C(O)=C3C4=O)cc2)cc1 (centres unmarked) [AW] | *** (concentrations of less than 10 μM) | ** (values of 10-20%) | *** (Good antibacterial activity (e.g., less than about 4 μg/mL)) | *** (Good antibacterial activity (e.g., less than about 4 μg/mL))
 |  | CN(C)C1C(O)=C(C(N)=O)C(=O)C2(O)C(O)=C3C(=O)c4c(O)ccc(-c5ccc(CN6CCOCC6)o5)c4CC3CC12 (centres unmarked) [AX] | *** (concentrations of less than 10 μM) | ** (values of 10-20%) | *** (Good antibacterial activity (e.g., less than about 4 μg/mL)) | ** (modest antibacterial activity (between about 4 and 8 μg/mL))
 |  | CN1CCN(Cc2ccc(-c3ccc(O)c4c3CC3CC5C(N(C)C)C(O)=C(C(N)=O)C(=O)C5(O)C(O)=C3C4=O)o2)CC1 (centres unmarked) [AY] | *** (concentrations of less than 10 μM) | *** (values greater than 20%) | *** (Good antibacterial activity (e.g., less than about 4 μg/mL)) | * (weak antibacterial activity (greater than about 8 μg/mL))
 |  | CON=Cc1ccc(-c2ccc(O)c3c2CC2CC4C(N(C)C)C(O)=C(C(N)=O)C(=O)C4(O)C(O)=C2C3=O)o1 (centres unmarked) [AZ] | *** (concentrations of less than 10 μM) | ** (values of 10-20%) | *** (Good antibacterial activity (e.g., less than about 4 μg/mL)) | * (weak antibacterial activity (greater than about 8 μg/mL))
 |  | COc1ccc(-c2ccc(O)c3c2CC2CC4C(N(C)C)C(O)=C(C(N)=O)C(=O)C4(O)C(O)=C2C3=O)cc1CNCC(N)=O (centres unmarked) [BE] | *** (concentrations of less than 10 μM) | ** (values of 10-20%) | *** (Good antibacterial activity (e.g., less than about 4 μg/mL)) | * (weak antibacterial activity (greater than about 8 μg/mL))
 |  | CN(C)C1C(O)=C(C(N)=O)C(=O)C2(O)C(O)=C3C(=O)c4c(O)ccc(-c5coc(CN6CCCCC6)c5)c4CC3CC12 (centres unmarked) [BF] | *** (concentrations of less than 10 μM) | ** (values of 10-20%) | *** (Good antibacterial activity (e.g., less than about 4 μg/mL)) | *** (Good antibacterial activity (e.g., less than about 4 μg/mL))
 |  | CN(C)C1C(O)=C(C(N)=O)C(=O)C2(O)C(O)=C3C(=O)c4c(O)ccc(-c5ccc(CNCc6cccnc6)o5)c4CC3CC12 (centres unmarked) [BI] | *** (concentrations of less than 10 μM) | ** (values of 10-20%) | *** (Good antibacterial activity (e.g., less than about 4 μg/mL)) | *** (Good antibacterial activity (e.g., less than about 4 μg/mL))
 |  | CN(Cc1cccnc1)Cc1cccc(-c2ccc(O)c3c2CC2CC4C(N(C)C)C(O)=C(C(N)=O)C(=O)C4(O)C(O)=C2C3=O)c1 (centres unmarked) [BJ] | *** (concentrations of less than 10 μM) | ** (values of 10-20%) | *** (Good antibacterial activity (e.g., less than about 4 μg/mL)) | * (weak antibacterial activity (greater than about 8 μg/mL))
 |  | CN(CCC#N)Cc1cccc(-c2ccc(O)c3c2CC2CC4C(N(C)C)C(O)=C(C(N)=O)C(=O)C4(O)C(O)=C2C3=O)c1 (centres unmarked) [BL] | * (concentrations of greater than 40 μM) | ** (values of 10-20%) | *** (Good antibacterial activity (e.g., less than about 4 μg/mL)) | * (weak antibacterial activity (greater than about 8 μg/mL))
 |  | COCCNCc1ccoc1-c1ccc(O)c2c1CC1CC3C(N(C)C)C(O)=C(C(N)=O)C(=O)C3(O)C(O)=C1C2=O (centres unmarked) [BQ] | *** (concentrations of less than 10 μM) | ** (values of 10-20%) | *** (Good antibacterial activity (e.g., less than about 4 μg/mL)) | * (weak antibacterial activity (greater than about 8 μg/mL))
 |  | CC(=O)N1CCN(CC(=O)c2ccc(O)c3c2CC2CC4C(N(C)C)C(O)=C(C(N)=O)C(=O)C4(O)C(O)=C2C3=O)CC1 (centres unmarked) [BS] | * (concentrations of greater than 40 μM) | ** (values of 10-20%) | *** (Good antibacterial activity (e.g., less than about 4 μg/mL)) | * (weak antibacterial activity (greater than about 8 μg/mL))
> 8 | > 8 | CN(C)CCNC(=O)c1cccc(-c2ccc(O)c3c2C[C@H]2C[C@H]4CC(O)=C(C(N)=O)C(=O)[C@@]4(O)C(O)=C2C3=O)c1 [Compound Z, (4aS,5aR,12aS)-7-[3-(2-Dimethylamino-ethylcarbamoyl)-phenyl]-3,10,12,12a-tetrahydroxy-1,11-dioxo-1,4,4a,5,5a,6,11,12a-octahydro-naphthacene-2-carboxylic Acid Amide] |  |  |  | 
 |  | CN1CCN(C(=O)c2cccc(-c3ccc(O)c4c3CC3CC5C(N(C)C)C(O)=C(C(N)=O)C(=O)C5(O)C(O)=C3C4=O)c2)CC1 (centres unmarked) [D] |  |  | * (weak antibacterial activity (greater than about 8 μg/mL)) | * (weak antibacterial activity (greater than about 8 μg/mL))
 |  | CCCCNC(=O)c1cccc(-c2ccc(O)c3c2CC2CC4C(N(C)C)C(O)=C(C(N)=O)C(=O)C4(O)C(O)=C2C3=O)c1 (centres unmarked) [F] |  |  | *** (Good antibacterial activity (e.g., less than about 4 μg/mL)) | * (weak antibacterial activity (greater than about 8 μg/mL))
 |  | CN(C)C1C(O)=C(C(N)=O)C(=O)C2(O)C(O)=C3C(=O)c4c(O)ccc(-c5cnc6ccccc6c5)c4CC3CC12 (centres unmarked) [G] |  |  | *** (Good antibacterial activity (e.g., less than about 4 μg/mL)) | * (weak antibacterial activity (greater than about 8 μg/mL))
 |  | CN(C)CCN(C)C(=O)c1cccc(-c2ccc(O)c3c2CC2CC4C(N(C)C)C(O)=C(C(N)=O)C(=O)C4(O)C(O)=C2C3=O)c1 (centres unmarked) [R] |  |  | *** (Good antibacterial activity (e.g., less than about 4 μg/mL)) | * (weak antibacterial activity (greater than about 8 μg/mL))
 |  | CN(C)CCCOc1ccc(-c2ccc(O)c3c2CC2CC4C(N(C)C)C(O)=C(C(N)=O)C(=O)C4(O)C(O)=C2C3=O)cn1 (centres unmarked) [W] |  |  | *** (Good antibacterial activity (e.g., less than about 4 μg/mL)) | *** (Good antibacterial activity (e.g., less than about 4 μg/mL))
